Assay results reported in patent publication US6534542B2, “(2-hydroxy)ethyl-thioureas useful as modulators of α2B adrenergic receptors” (Allergen Sales, Inc., priority 2001, dated 2003).

Assays:
alpha2B receptor = target: T1, alpha2B receptor (Homo sapiens, UniProt P18089); assay: Receptor Selection and Amplification Technology (RSAT) assay, alpha2B; type: cell-based; settings: NIH-3T3 cells; for EC50: NA = not active at concentrations less than 10 micromolar, read-out: RSAT EC50 (nM) Alpha 2B; for fraction of activity of the standard (brimonidine) attained, Alpha 2B (number in parenthesis): ratio of maximal effect to that of standard full agonist brimonidine
T1 construct: expressed in transfected cells; host or cells: NIH-3T3
T1 sequence (P18089 1-450): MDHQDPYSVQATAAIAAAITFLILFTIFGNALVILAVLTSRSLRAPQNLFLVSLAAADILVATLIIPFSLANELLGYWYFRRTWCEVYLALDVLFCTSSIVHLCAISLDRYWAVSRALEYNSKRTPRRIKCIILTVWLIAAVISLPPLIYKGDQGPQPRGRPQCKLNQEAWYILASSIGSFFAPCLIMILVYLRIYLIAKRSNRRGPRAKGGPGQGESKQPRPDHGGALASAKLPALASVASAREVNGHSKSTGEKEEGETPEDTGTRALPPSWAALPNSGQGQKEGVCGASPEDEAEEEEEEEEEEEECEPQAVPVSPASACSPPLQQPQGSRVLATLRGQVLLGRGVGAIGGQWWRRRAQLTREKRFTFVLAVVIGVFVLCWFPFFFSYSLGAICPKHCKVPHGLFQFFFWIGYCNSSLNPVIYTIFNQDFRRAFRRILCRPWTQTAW
Excerpt: (§1) The compounds of the invention are agonists of α2 adrenergic receptors, particularly they tend to be specific or selective agonists of α2B and/or to a lesser extent α2C adrenergic receptors, in preference over α2A adrenergic receptors. […] Al., 1995, Pharmacol. Toxicol. 76, pp. 308-311 (incorporated herein by reference) and is also described below. Another reference pertinent to this assay is Conklin et al. (1993) Nature 363:274-6, also incorporated herein by reference.
(§2) The RSAT assay measures a receptor-mediated loss of contact inhibition that results in selective proliferation of receptor-containing cells in a mixed population of confluent cells. The increase in cell number is assessed with an appropriate transfected marker gene such as β-galactosidase, the activity of which can be easily measured in a 96-well format. Receptors that activate the G protein, Gq, elicit this response. Alpha2 receptors, which normally couple to Gi, activate the RSAT response when coexpressed with a hybrid Gq protein that has a Gi receptor recognition domain, called Gq/i5^2.
(§3) NIH-3T3 cells are plated at a density of 2×10^6 cells in 15 cm dishes and maintained in Dulbecco's modified Eagle's medium supplemented with 10% calf serum. One day later, cells are cotransfected by calcium phosphate precipitation with mammalian expression plasmids encoding p-SV-β-galactosidase (5-10 μg), receptor (1-2 μg) and G protein (1-2 μg). 40 μg salmon sperm DNA may also be included in the transfection mixture. Fresh media is added on the following day and 1-2 days later, cells are harvested and frozen in 50 assay aliquots. Cells are thawed and 100 μl added to 100 μl aliquots of various concentrations of drugs in triplicate in 96-well dishes. Incubations continue 72-96 hr at 37°. After washing with phosphate-buffered saline, β-galactosidase enzyme activity is determined by adding 200 μl of the chromogenic substrate (consisting of 3.5 mM o-nitrophenyl-β-D-galactopyranoside and 0.5% nonidet P-40 in phosphate buffered saline), incubating overnight at 30 and measuring optical density at 420 nm. The absorbance is a measure of enzyme activity, which depends on cell number and reflects a receptor-mediated cell proliferation. The EC50 and maximal effect of each drug at each alpha2 receptor is determined. The efficacy or intrinsic activity is calculated as a ratio of the maximal effect of the drug to the maximal effect of a standard full agonist for each receptor subtype. Brimonidine, also called […], the chemical structure of which is shown below, is used as the standard agonist for the alpha2A, alpha2B and alpha2C receptors. [drawing 6]
(§4) The results of the RSAT assay with several exemplary compounds of the invention are disclosed in Table 3. […] NA stands for “not active” at concentrations less than 10 micromolar. As is known EC50 is the concentration at which half of a given compound's maximal activity is observed. It can be seen from the table that the compounds of the invention are specific or selective agonists of α2B and/or α2C adrenergic receptors, with no agonist like activity or only with insignificant agonist-like activity on α2A receptors.

[1] = system: rats with ligated L5 and L6 spinal nerves; assay: Alleviation of chronic pain: tactile allodynia after L5/L6 spinal nerve ligation (von Frey hairs); type: in vivo, rat; settings: 30 minutes after administration, ±SEM
Excerpt: A model for chronic pain (in particular peripheral neuropathy such as causalgia) involves the surgical ligation of the L5 (and optionally the L6) spinal nerves on one side in experimental animals. Rats recovering from the surgery gain weight and display a level of general activity similar to that of normal rats. However, these rats develop abnormalities of the foot, wherein the hindpaw is moderately everted and the toes are held together. More importantly, the hindpaw on the side affected by the surgery appears to become sensitive to pain from low-threshold mechanical stimuli, such as that producing a faint sensation of touch in a human, within about 1 week following surgery. This sensitivity to normally non-painful touch is called “tactile allodynia” and lasts for at least two months. The response includes lifting the affected hindpaw to escape from the stimulus, licking the paw and holding it in the air for many seconds. None of these responses is normally seen in the control group.
Rats are anesthetized before surgery. The surgical site is shaved and prepared either with betadine or Novacaine. Incision is made from the thoracic vertebra XIII down toward the sacrum. Muscle tissue is separated from the spinal vertebra (left side) at the L4-S2 levels. The L6 vertebra is located and the transyerse process is carefully removed with a small rongeur to expose the L4-L6 spinal nerves. The L5 and L6 spinal nerves are isolated and tightly ligated with 6-0 silk thread. The same procedure is done on the right side as a control, except no ligation of the spinal nerves is performed. A complete hemostasis is confirmed, then the wounds are sutured. A small amount of antibiotic ointment is applied to the incised area, and the rat is transferred to the recovery plastic cage under a regulated heat-temperature lamp. On the day of the experiment, at least seven days after the surgery, typically six rats per test group are administered the test drugs by intraperitoneal (i.p.) injection or oral gavage. For i.p. injection, the compounds are formulated in approximately 10 to 50% DMSO and given in a volume of 1 ml/kg body weight.
Tactile allodynia is measured prior to and 30 minutes after drug administration using von Frey hairs that are a series of fine hairs with incremental differences in stiffness. Rats are placed in a plastic cage with a wire mesh bottom and allowed to acclimate for approximately 30 minutes. The von Frey hairs are applied perpendicularly through the mesh to the mid-plantar region of the rats' hindpaw with sufficient force to cause slight buckling and held for 6-8 seconds. The applied force has been calculated to range from 0.41 to 15.1 grams. If the paw is sharply withdrawn, it is considered a positive response. A normal animal will not respond to stimuli in this range, but a surgically ligated paw will be withdrawn in response to a 1-2 gram hair. The 50% paw withdrawal threshold is determined using the method of Dixon, […]. The post-drug threshold is compared to the pre-drug threshold and the percent reversal of tactile sensitivity is calculated based on a normal threshold of 15.1 grams. The results are expressed in per cent (%) MPE, where the MPE value reflects the percentage reversal of pain threshold to that of a normal animal (100%). Table 4 below indicates results of this test with Compounds 8, 34 and 40 of the invention, administered i.p., in intrathecal and oral doses.

alpha2C receptor = target: T2, alpha2C receptor (Homo sapiens, UniProt P18825); assay: Receptor Selection and Amplification Technology (RSAT) assay, alpha2C; type: cell-based; settings: NIH-3T3 cells; for EC50: NA = not active at concentrations less than 10 micromolar, read-out: RSAT EC50 (nM) Alpha 2C; for fraction of activity of the standard (brimonidine) attained, Alpha 2C (number in parenthesis): ratio of maximal effect to that of standard full agonist brimonidine
T2 construct: expressed in transfected cells; host or cells: NIH-3T3
T2 sequence (P18825 1-462): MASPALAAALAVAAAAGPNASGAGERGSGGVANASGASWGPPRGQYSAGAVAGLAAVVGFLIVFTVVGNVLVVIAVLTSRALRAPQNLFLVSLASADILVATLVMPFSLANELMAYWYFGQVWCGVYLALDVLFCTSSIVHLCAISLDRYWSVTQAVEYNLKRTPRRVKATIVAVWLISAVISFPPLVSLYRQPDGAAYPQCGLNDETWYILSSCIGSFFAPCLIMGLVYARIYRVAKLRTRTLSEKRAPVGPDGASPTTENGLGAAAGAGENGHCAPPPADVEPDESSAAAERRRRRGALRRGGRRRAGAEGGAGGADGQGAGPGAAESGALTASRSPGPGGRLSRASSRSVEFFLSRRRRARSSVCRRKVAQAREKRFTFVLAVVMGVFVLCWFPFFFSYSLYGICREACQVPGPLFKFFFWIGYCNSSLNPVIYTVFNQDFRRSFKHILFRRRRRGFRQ
Excerpt: as §1, §2, §3, §4

| SMILES | EC50 (alpha2B receptor) [nM] | fraction of activity of the standard (brimonidine) attained, Alpha 2B (number in parenthesis) (alpha2B receptor) | % MPE ([1]; IP dose 10 μg/kg) [% MPE] | % MPE ([1]; IP dose 30 μg/kg) [% MPE] | % MPE ([1]; IP dose 100 μg/kg) [% MPE] | % MPE ([1]; IP dose 300 μg/kg) [% MPE] | % MPE ([1]; IP dose 1000 μg/kg) [% MPE] | % MPE ([1]; Intrathecal dose 30 μg) [% MPE] | % MPE ([1]; Intrathecal dose 100 μg) [% MPE] | % MPE ([1]; Intrathecal dose 300 μg) [% MPE] | EC50 (alpha2C receptor) [nM] | fraction of activity of the standard (brimonidine) attained, Alpha 2C (number in parenthesis) (alpha2C receptor) |
| --- | --- | --- | --- | --- | --- | --- | --- | --- | --- | --- | --- | --- |
| OCCNC(=S)NCC1CC=CCC1 (stereo not drawn) [Compound 8, 1-Cyclohex-3-enylmethyl-3-(2-hydroxy-ethyl)-thiourea] | 17 | (0.79) | 1.5 ± 0.9 | 47 ± 8.6 | 63 ± 9.1 | 56 ± 6.5 | 52 ± 8.4 | 0.02 ± 0.6 | 1.3 ± 0.6 | 20 ± 5.1 |  |  |
| CC1=CCCC1NC(=S)NCCO (stereo not drawn) [Compound 14, 1-(2-Hydroxy-ethyl)-3-(2-methyl-cyclopent-2-enyl)-thiourea] | 97 | (0.95) |  |  |  |  |  |  |  |  | 3000 | (0.3) |
| CCCCC1=C(CNC(=S)NCCO)CCC1 [Compound 25, 1-(2-Butyl-cyclopent-1-enylmethyl)-3-(2-hydroxy-ethyl)-thiourea] | > 2000 | (0.51) |  |  |  |  |  |  |  |  | 738 | (0.69) |
| CC1=C(CNC(=S)NCCO)CCC1 [Compound 27, 1-(2-Methyl-cyclopent-1-enylmethyl)-3-(2-hydroxy-ethyl)-thiourea] | 135 | (0.75) |  |  |  |  |  |  |  |  | 1730 | (0.3) |
| CC1=C(C)C(NC(=S)NCCO)CCC1 (stereo not drawn) [Compound 31, 1-(2,3-Dimethyl-cyclohex-2-enyl)-3-(2-hydroxy-ethyl)-thiourea] | 6 | (0.8) |  |  |  |  |  |  |  |  | 253 | (0.37) |
| CC1=CCCCC1NC(=S)NCCO (stereo not drawn) [Compound 33, 1-(2-Hydroxy-ethyl)-3-(2-methyl-cyclohex-2-enyl)-thiourea] | 12 | (0.71) |  |  |  |  |  |  |  |  | 251 | (0.98) |
| CCC1=CCCCC1NC(=S)NCCO (stereo not drawn) [Compound 34, 1-(2-Hydroxy-ethyl)-3-(2-ethyl-cyclohex-2-enyl)-thiourea] | 11 | (0.88) | 0.4 ± 1.0 | 48 ± 6.1 | 66 ± 11 | 96 ± 3.7 |  |  |  |  | 59 | (0.62) |
| OCCNC(=S)NC1C=CCCC1 (stereo not drawn) [Compound 35, 1-(Cyclohex-2-enyl)-3-(2-hydroxy-ethyl)-thiourea] | 73 | (0.58) |  |  |  |  |  |  |  |  | 630 | (0.4) |
